The text below walks through data of BindingDB's records for doi:10.1016/j.bmcl.2014.05.036 (AstraZeneca, 2014).

Experiment [1] in a line: Inhibition of human BCL-2 overexpressed in mouse FDC-P1 cells assessed as cell viability after 24 hrs by Cell Titer Glo assay.
Experiment [2] is described as follows: Inhibition of human BCL-xL overexpressed in mouse FDC-P1 cells assessed as cell viability after 24 hrs by Cell Titer Glo assay. A general note: ATP-based viability assays read luminescence as a measure of living cells.

For the molecule `O=C(NS(=O)(=O)c1ccc(N[C@H](CCN2CCOCC2)CSc2ccccc2)c(S(=O)(=O)C(F)(F)F)c1)c1ccc(N2CCN(Cc3ccccc3-c3ccc(Cl)cc3)CC2)cc1`, the IC50 (as a rule, the concentration that inhibits the measured activity by half) in experiment [1] came out at 14 nM; in experiment [2], 64 nM.
Taken in the same sequence, the figures for `O=C(NS(=O)(=O)c1ccc(N[C@H](CCN2CCOCC2)CSc2ccccc2)c(S(=O)(=O)C(F)(F)F)c1)c1cnc(N2CCN(Cc3ccccc3-c3ccc(Cl)cc3)CC2)nc1` were 340 nM and 2090 nM.
Taken in the same sequence, the figures for `O=C(NS(=O)(=O)c1ccc(N[C@H](CCN2CCOCC2)CSc2ccccc2)c(S(=O)(=O)C(F)(F)F)c1)c1ccc(N2CCC([S@@+]([O-])c3ccccc3-c3ccc(Cl)cc3)CC2)cc1` were 434 nM and 1720 nM.
For `N#CC1(Cc2ccccc2-c2ccc(Cl)cc2)CCN(c2ccc(C(=O)NS(=O)(=O)c3ccc(N[C@H](CCN4CCOCC4)CSc4ccccc4)c(S(=O)(=O)C(F)(F)F)c3)cc2)CC1`, in that order: 545 nM and 2820 nM.
As to `CN(C)C(=O)COc1cccc(-c2ccc(Cl)cc2)c1CN1CCN(c2ccc(C(=O)NS(=O)(=O)c3ccc(N[C@H](CCN4CCOCC4)CSc4ccccc4)c(S(=O)(=O)C(F)(F)F)c3)cc2)CC1`, the results for the IC50 in experiment [1] and in experiment [2] were 45 nM and 226 nM, respectively.
Take `CN(C)C(=O)COc1ccc(-c2ccc(Cl)cc2)c(CN2CCN(c3ccc(C(=O)NS(=O)(=O)c4ccc(N[C@H](CCN5CCOCC5)CSc5ccccc5)c(S(=O)(=O)C(F)(F)F)c4)cc3)CC2)c1`: the IC50 in experiment [1] was 187 nM; in experiment [2] it was 2090 nM.
For `CN(C)CCOc1cccc(-c2ccc(Cl)cc2)c1CN1CCN(c2ccc(C(=O)NS(=O)(=O)c3ccc(N[C@H](CCN4CCOCC4)CSc4ccccc4)c(S(=O)(=O)C(F)(F)F)c3)cc2)CC1`, in that order: 4 nM and 33 nM.
Regarding `CN(C)CCOc1ccc(-c2ccc(Cl)cc2)c(CN2CCN(c3ccc(C(=O)NS(=O)(=O)c4ccc(N[C@H](CCN5CCOCC5)CSc5ccccc5)c(S(=O)(=O)C(F)(F)F)c4)cc3)CC2)c1`, the IC50 in experiment [1] amounted to 22 nM; in experiment [2], 138 nM.
